For 37 compounds, IC50, EC50 and AC50 results are on record in ChEMBL document CHEMBL1201862, “PubChem BioAssay data set” (2004).

SMILES strings stand for the structures. Calls of active or inactive are those of the source.

In test [1] the target is T1, Fatty acid synthase (Homo sapiens, UniProt P49327). Put plainly: inhibition of human FAS-TE enzyme activity – biochemical, endpoint fluorescence intensity, uHTS hits, dose response (AID 624327).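 Also: fluorescence from hydrolysis of an O-methyl fluorescein acyl ester substrate by the enzyme.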 It counts as functional.
In test [2] the target is T1, Fatty acid synthase. The test can be described thus: inhibition of human FAS-TE enzyme activity – biochemical, kinetic fluorescence intensity, dose response (AID 624326).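 Also: rate of fluorescence rise from hydrolysis of a fluorogenic O-methyl fluorescein ester substrate.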 It counts as functional.
Test [3] has as its target T2, Polyadenylate-binding protein 1 (Homo sapiens, UniProt P11940). The test can be described thus: MLLE domain peptide-binding blockers, IC50 – biochemical, fluorescence polarization, FITC-PAM2 peptide, dose response (AID 602259). It counts as functional. As to conditions: read-out: IC50_Mean.
Test [4] deals with T2, Polyadenylate-binding protein 1. The test can be described thus: MLLE binding blockers, Cy5 peptide tracer – biochemical, fluorescence polarization, Cy5-PAM2 peptide, secondary, miRNA deadenylation inhibitor project, dose response (AID 602260). It counts as functional. As to conditions: read-out: IC50_Mean. (Fluorescence polarisation rises when a labelled molecule tumbles more slowly, as on binding a larger partner.)

Test [5] is described as follows: Luminescence Cell-Based Dose Confirmation HTS to Identify Activators of 5'UTR Stem-Loop Driven Alpha-Synuclein mRNA Translation in H4 Neuroglioblastoma Cells. [Related pubchem assays: 1829 (Project Summary), 1814 (Primary HTS)]. It counts as functional.
Test [6] concerns H4. Put plainly: Luminescence Cell-Based Dose Response HTS to Identify Activators of 5'UTR Stem-Loop Driven Prion Protein mRNA Translation in H4 Neuroglioblastoma Cells. [Related pubchem assays: 1829 (Project Summary), 1814 (Primary HTS)]. It counts as functional. As to conditions: Homo sapiens.
The nature of test [7]: Luminescence Cell-Based Dose Response HTS to Identify Activators of Luciferase Translation or Activity in H4 […] Cells. [Related pubchem assays: 1829 (Project Summary), 1814 (Primary HTS)]. It counts as functional.
Test [8] has as its system H9c2. Put plainly: cells. Conditions: Rattus norvegicus, H9c2, Myocardium. It counts as functional, cell-based.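 Also: confirmatory concentration-response retest of ultra-high-throughput screening hits for modulation of myocardial damage; cell death induced by hydrogen peroxide oxidative stress; compound pretreatment for 60 min then peroxide exposure for 2 h; potency is for protecting the cells against peroxide damage rather than for killing them.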
Test [9] relates to Streptococcus. The test can be described thus: GAS UMAA2166 growth inhibition – luminescence, BacTiterGlo, counter-screen for streptokinase expression inhibitor project, dose response (AID 1915).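 Also: potency for reduction of bacterial viability or growth.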 It counts as functional, organism-based. In general terms: Counterscreens check selectivity or assay interference.
Test [10] addresses T3, Streptokinase A (Streptococcus pyogenes serotype M1, UniProt P10520).
T3 sequence (P10520 whole entry): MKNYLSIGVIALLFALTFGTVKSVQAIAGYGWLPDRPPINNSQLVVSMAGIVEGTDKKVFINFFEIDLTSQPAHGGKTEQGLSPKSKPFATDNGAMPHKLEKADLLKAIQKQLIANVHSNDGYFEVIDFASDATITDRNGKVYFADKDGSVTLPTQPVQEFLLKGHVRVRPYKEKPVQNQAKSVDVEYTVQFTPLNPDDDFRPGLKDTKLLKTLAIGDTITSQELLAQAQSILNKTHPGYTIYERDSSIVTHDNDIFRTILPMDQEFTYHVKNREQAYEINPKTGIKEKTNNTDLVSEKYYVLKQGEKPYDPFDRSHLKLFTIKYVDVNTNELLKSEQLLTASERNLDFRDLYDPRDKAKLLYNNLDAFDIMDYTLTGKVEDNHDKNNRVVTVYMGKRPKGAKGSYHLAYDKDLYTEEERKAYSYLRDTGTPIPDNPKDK
Put plainly: viability-normalized secreted streptokinase activity reduction – plasminogen activation absorbance, OD405, dose response (AID 1914).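 Also: secreted streptokinase activity via plasminogen activation per viability signal from cell pellet.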 It counts as functional, Streptococcus pyogenes M1 GAS.

For test [11], the system named is Streptococcus sp. 'group A'. Put plainly: Streptococcus pyogenes SK(-)GAS viability under kanamycin – luminescence, BacTiterGlo, confirmation, counter-screen for streptokinase expression inhibitor project, dose response (AID 1900). It counts as functional, organism-based.
Test [12] addresses Cytochrome P450 2C19 (Homo sapiens, UniProt P33261). Put plainly: Cytochrome panel assay with activity outcomes. Panel member name: p450-cyp2c19 Compounds with AC50 equal or less than 10 uM are considered active. It counts as functional. Conditions: read-out: AC50.
The target in test [13] is T4, Cytochrome P450 1A2 (Homo sapiens, UniProt P05177).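 Also: PubChem cytochrome P450 panel assay, CYP1A2 panel member.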
T4 sequence (P05177 whole entry): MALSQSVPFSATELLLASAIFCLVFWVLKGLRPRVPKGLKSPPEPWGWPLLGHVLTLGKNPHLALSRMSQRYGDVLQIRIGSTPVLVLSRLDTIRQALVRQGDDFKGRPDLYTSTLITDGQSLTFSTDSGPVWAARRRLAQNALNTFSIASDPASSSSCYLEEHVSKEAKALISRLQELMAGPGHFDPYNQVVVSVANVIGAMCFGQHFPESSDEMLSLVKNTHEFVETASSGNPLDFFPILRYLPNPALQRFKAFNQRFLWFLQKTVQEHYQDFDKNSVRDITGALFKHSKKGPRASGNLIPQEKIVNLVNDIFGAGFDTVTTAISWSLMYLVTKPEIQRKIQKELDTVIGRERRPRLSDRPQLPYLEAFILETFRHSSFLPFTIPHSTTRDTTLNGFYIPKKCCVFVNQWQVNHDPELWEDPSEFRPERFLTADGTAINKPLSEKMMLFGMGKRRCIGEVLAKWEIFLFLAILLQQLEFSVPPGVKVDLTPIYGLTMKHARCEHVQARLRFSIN

T2 sequence (P11940 whole entry, the tested form may be a part): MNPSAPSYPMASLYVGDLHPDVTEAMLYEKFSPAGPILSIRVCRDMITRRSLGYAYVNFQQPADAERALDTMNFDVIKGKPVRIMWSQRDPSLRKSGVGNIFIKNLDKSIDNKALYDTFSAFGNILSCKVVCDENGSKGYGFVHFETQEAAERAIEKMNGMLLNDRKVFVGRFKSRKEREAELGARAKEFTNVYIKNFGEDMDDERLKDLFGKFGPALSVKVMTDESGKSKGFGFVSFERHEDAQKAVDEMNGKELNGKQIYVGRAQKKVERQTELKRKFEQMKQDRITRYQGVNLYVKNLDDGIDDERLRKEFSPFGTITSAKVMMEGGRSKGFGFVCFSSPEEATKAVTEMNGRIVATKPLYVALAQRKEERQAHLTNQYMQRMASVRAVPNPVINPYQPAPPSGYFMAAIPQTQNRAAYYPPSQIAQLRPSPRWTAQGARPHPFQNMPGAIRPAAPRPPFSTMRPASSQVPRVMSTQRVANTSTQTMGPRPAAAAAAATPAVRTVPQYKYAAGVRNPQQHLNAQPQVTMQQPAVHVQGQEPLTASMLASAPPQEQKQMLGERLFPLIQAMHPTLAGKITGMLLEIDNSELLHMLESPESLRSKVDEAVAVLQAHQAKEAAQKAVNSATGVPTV
T1 sequence (P49327 whole entry): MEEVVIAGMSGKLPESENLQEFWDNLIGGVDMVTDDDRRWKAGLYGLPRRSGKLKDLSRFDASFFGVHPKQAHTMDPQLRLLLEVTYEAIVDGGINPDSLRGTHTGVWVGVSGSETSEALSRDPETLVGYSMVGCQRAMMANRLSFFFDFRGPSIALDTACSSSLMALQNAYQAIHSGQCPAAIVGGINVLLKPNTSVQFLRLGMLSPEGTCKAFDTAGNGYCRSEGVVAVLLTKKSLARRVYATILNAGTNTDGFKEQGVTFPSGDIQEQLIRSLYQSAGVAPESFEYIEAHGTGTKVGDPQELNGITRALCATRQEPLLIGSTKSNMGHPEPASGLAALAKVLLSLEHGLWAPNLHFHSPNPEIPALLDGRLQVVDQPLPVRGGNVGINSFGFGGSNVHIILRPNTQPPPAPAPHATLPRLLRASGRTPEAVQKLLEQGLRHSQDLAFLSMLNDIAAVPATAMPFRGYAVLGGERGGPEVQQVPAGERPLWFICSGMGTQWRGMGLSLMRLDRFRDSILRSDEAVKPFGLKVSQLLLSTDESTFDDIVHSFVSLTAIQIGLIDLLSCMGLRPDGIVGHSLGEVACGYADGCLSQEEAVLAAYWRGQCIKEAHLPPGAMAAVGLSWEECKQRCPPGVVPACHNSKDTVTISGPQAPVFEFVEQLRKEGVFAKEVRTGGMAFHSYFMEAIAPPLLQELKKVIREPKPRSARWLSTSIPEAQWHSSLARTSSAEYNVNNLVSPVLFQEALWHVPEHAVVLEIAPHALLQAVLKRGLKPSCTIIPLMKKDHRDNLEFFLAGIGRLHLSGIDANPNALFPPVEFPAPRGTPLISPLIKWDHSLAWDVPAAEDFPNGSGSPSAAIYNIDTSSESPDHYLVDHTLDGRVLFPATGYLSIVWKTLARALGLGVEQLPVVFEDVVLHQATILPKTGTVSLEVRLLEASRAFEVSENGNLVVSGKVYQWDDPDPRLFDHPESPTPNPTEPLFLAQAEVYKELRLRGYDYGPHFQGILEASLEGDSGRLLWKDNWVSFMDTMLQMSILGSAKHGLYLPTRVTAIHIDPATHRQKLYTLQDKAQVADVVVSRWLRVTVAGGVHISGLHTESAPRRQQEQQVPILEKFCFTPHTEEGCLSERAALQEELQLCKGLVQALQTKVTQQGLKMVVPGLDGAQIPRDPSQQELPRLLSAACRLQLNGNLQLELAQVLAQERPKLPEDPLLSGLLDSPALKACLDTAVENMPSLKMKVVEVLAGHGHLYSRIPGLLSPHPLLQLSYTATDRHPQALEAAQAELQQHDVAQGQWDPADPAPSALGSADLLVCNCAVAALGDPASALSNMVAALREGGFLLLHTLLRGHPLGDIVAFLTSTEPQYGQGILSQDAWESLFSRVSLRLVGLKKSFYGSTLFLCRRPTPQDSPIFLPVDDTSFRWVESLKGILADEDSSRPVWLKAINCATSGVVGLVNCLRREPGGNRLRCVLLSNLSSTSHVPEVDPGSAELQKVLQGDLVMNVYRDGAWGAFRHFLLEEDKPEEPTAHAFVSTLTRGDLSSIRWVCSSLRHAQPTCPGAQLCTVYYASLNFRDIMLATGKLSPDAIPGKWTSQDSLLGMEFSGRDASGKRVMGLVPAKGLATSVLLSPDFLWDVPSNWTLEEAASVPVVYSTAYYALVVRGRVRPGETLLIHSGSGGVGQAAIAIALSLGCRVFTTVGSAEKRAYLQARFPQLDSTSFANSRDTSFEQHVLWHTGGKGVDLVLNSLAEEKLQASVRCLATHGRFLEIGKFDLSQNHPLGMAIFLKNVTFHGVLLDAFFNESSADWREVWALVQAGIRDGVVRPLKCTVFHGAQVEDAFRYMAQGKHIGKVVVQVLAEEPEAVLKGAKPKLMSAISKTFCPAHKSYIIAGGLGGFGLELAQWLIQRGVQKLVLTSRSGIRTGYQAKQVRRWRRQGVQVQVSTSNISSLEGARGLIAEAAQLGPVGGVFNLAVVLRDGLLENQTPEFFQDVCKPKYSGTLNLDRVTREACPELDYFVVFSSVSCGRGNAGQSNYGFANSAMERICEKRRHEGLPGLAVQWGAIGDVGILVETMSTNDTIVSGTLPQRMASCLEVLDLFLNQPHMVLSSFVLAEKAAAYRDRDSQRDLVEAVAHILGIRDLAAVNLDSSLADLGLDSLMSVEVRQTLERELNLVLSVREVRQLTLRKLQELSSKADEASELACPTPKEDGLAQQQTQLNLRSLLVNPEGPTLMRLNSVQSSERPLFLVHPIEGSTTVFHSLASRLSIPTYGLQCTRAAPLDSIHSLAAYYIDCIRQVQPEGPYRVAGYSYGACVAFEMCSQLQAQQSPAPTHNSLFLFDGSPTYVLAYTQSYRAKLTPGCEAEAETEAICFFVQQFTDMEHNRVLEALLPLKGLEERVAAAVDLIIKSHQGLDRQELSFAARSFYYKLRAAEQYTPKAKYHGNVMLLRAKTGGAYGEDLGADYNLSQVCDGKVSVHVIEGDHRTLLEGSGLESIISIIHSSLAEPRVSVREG
Chain of Cytochrome P450 2C19 (P33261 whole entry): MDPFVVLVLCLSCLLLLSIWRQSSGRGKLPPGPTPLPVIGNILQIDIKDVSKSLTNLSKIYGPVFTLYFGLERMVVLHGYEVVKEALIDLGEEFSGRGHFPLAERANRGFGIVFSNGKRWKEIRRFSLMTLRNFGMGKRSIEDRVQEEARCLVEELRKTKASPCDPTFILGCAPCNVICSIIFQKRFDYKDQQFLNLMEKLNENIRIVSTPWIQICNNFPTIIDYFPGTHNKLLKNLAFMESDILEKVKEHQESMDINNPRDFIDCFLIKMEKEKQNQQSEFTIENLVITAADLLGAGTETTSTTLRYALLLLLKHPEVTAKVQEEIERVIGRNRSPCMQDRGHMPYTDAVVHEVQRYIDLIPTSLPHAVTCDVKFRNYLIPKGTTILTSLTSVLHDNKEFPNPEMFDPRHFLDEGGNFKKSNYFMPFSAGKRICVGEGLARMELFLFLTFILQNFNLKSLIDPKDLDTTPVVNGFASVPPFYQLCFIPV

`COC(=O)c1cc(C(=O)OCC(=O)c2ccc3c(c2)NC(=O)CO3)cc([N+](=O)[O-])c1`: the IC50 in [1] was 13.6 µM (active); in [2], 30.9 µM (inactive).

As for `COc1ccc(OC)c(S(=O)(=O)N2CCCCC2C(=O)N2CCN(c3ccccn3)CC2)c1` (stereo unspecified), the IC50 in [3] and in [4] was > 66 µM (inactive) each time.

As for `Cc1cc(C)nc(SCNC(=O)c2ccc(Cl)cc2)n1`, the IC50 in test [3] and in [4] was > 66 µM (inactive) each time.

The term EC50 denotes the concentration that produces a half-maximal response. Turning to `Cc1nc2c(cc(Oc3ccc(S(=O)(=O)N4CCOCC4)cn3)c3ccsc32)s1`, the values for the EC50 in [5], in test [6] and in test [7] were 10.2 µM (active), > 120 µM (not active) and 15.5 µM (active), respectively.

As to `O=C1c2ccccc2NC(c2ccccc2O)N1NS(=O)(=O)c1ccccc1` (stereo unspecified), the EC50 in [5] is > 120 µM (not active); in [6], > 120 µM (not active); in [7], > 60 µM (not active).

In the case of `Cc1ccc(-c2csc(N3CCC[C@@H]3C(=O)NCCn3c(-c4ccncc4)nc4ccccc43)n2)cc1`, the IC50 in test [8] is > 79 µM (inactive).

For the compound `CC1(C(=O)NC(=S)N(CCC#N)c2ccccc2)CC1(Cl)Cl` (stereo unspecified), the IC50 in test [3] and in test [4] was > 66 µM (inactive) in each case.

In the case of `O=C(NCC(=O)N(Cc1cccs1)C(C(=O)NC1CCCC1)c1ccco1)c1cccs1` (stereo unspecified), in [8], the IC50 is > 79 µM (inactive).

`O=C(NC1CCCCCC1)C(=S)N1CCOCC1`: the IC50 in test [3] and in test [4] was > 66 µM (inactive) throughout.

Turning to `NC(=NOC(=O)CCC1CCCCC1)c1cccc([N+](=O)[O-])c1`, the IC50 in test [1] was 6.09 µM (active); in test [2] it was 6 µM (active).

On to `CC(=O)Nc1ccc(NC(=S)NC(=O)c2ccc([N+](=O)[O-])cc2)cc1`, for which the IC50 in test [3] and in test [4] was > 66 µM (inactive) in each case.

With `CN(C(=O)CSc1nncc2ccccc12)C1CCCCC1`, the figures for the EC50 in test [5], in test [6] and in test [7] were 10.5 µM (active), 13.1 µM (active) and 14.1 µM (active), respectively.

On to `COCCOC(=O)C1=C(C)NC(=O)NC1c1c(Cl)nc2ccccn2c1=O` (stereo unspecified), for which the IC50 in test [3] and in [4] was > 66 µM (inactive) in each case.

In the case of `COc1cccc(C2C(C#N)=C(N)OC(C(C)(C)C)=C2C#N)c1` (stereo unspecified), the EC50 in test [5], in test [6] and in test [7] was > 120 µM (not active) each time.

As to `O=C(Cc1cccc(C(F)(F)F)c1)OCN1C(=O)c2ccccc2C1=O`, the IC50 in test [1] was 16.8 µM (active); in test [2] it was 11.6 µM (active).

On to `CSc1ccc(CC(=O)N2CCC(n3nccc3NC(=O)C3CC3)CC2)cc1`, for which the EC50 in test [5] was 15.2 µM (active); in test [6] it was > 120 µM (not active); in [7] it was 4.85 µM (active).

Turning to `Cc1nn(C)cc1C(C(=O)NC1CCCCC1)N(C(=O)Cc1cccs1)c1ccc(C(C)C)cc1` (stereo unspecified), the IC50 in [1] is 8.86 µM (active); in [2], 4.06 µM (active).

`O=c1c2ccccc2oc2nc(-c3ccco3)n(Cc3ccccc3)c(=O)c12`: the IC50 in test [8] was > 79 µM (inactive).

For `CCOC(=O)C1=C(CSc2nc(-c3ccccc3)ccc2C#N)OC(N)=C(C#N)C1c1ccc(OC)cc1` (stereo unspecified), the EC50 in test [5] was 12.3 µM (active); in [6], 13.3 µM (active); in [7], 16.8 µM (active).

Turning to `CCOc1ccc2[nH]c(SCC(=O)OC)c([N+](=O)[O-])c2c1`, the IC50 in [3] is 41 µM (inactive); in test [4] it was > 66 µM (inactive).

`CCN(CC)S(=O)(=O)c1ccc(-n2cnc3cc(C)c(C)cc32)nc1`: the IC50 in test [1] is 11.4 µM (active); in test [2] it was 12.8 µM (active).

As for `CCCN1C(=O)/C(=C/c2nc(O)c3ccccc3n2)c2ccccc21`, the IC50 in test [8] is > 79 µM (inactive).

As to `Cc1cccc(NC(=O)CNC(=O)COC(=O)c2ccc(C(C)(C)C)cc2)c1C`, the IC50 in test [1] is 14.6 µM (active); in [2], 20.7 µM (inactive).

For `CC(OC(=O)Cn1[nH]c(=O)c2ccccc2c1=O)C(=O)NC1(C#N)CCCCC1` (stereo unspecified), the IC50 in test [8] was > 79 µM (inactive).

With `O=C(Nc1ccccc1N1CCCC1)c1cc2ccccc2o1`, the IC50 in test [3] and in test [4] was > 66 µM (inactive) throughout. The EC50 was 6.1 µM (active) in [5], 56.5 µM (active) in test [6] and 5.42 µM (active) in test [7].

As to `COc1ccc(-c2nnc(SCC(=O)Nc3ncc(C(F)(F)F)cc3Cl)n2CC(C)C)cc1`, the IC50 in test [1] was 2.11 µM (active); in test [2], 3.55 µM (active).

As to `COc1ccccc1NS(=O)(=O)c1cc(NC(=O)Cc2nnc(O)c3ccccc23)ccc1Cl`, in [8], the IC50 was 20 µM (active).

Take `O=C(COc1cccc2c1CCNC2=O)Nc1ccc(F)cc1`: the IC50 in test [8] is 37.2 µM (inactive).

Take `O=C(CSc1ncnc2c1cnn2-c1ccccc1)NC1CCS(=O)(=O)C1` (stereo unspecified): the IC50 in test [1] is 7.65 µM (active); in [2], 9.44 µM (active).

With `COc1cc(-c2cc(NC(C)=O)c3ncc(-c4ccccc4)n3c2)cc(OC)c1OC`, the IC50 in [8] was > 79 µM (inactive).

On to `CN(C)CCCNC(=O)CC1C[C@H](C(=O)N2CCOCC2)[C@@]2(CCC3CCCC3)c3[nH]c4ccccc4c3CCN2C1=O` (stereo partly specified), for which the values for the IC50 in [1] and in test [2] were 2.12 µM (active) and 4.82 µM (active), respectively.

For `O=C(CC1C[C@H](C(=O)N2CCOCC2)[C@@]2(CCC3CCCC3)c3[nH]c4ccccc4c3CCN2C1=O)NCc1ccco1` (stereo partly specified), the IC50 was 1.25 µM (active) in test [1] and 0.778 µM (active) in test [2].

In the case of `O=C(NC1CCCCC1)N(c1ccccc1)c1nnc(-c2cccc([N+](=O)[O-])c2)s1`, the values for the IC50 in test [1] and in test [2] were 6.12 µM (active) and 7.21 µM (active), respectively.

Take `Brc1ccc(-c2ccc(/C=N/Nc3nc(N4CCOCC4)nc(N4CCOCC4)n3)o2)cc1`: the IC50 in test [8] is > 79 µM (inactive).

With `CCOc1ccc(N/C(S)=N/CCCn2ccnc2)cc1`, the concentration giving a half-maximal response (EC50) in test [5], in [6] and in [7] was > 120 µM (not active) in each case.

Regarding `COc1ccc(/C=N/Nc2nc(Nc3ccccc3)nc(N3CCCCC3)n2)cc1OC`, the EC50 in test [9] was 46.3 µM (active); in [5], 9.49 µM (active); in [10], > 150 µM (not active); in test [6], 23.1 µM (active); in test [11], 16.1 µM (active); in [7] it was 8.28 µM (active).

A word on the AC50: it is the concentration at which the activity in the assay is half-maximal. Consider `C(/C=C/c1ccco1)=N/N1CCN(c2ccccc2)CC1`, for which the AC50 is 2 µM (inconclusive) in [12] and 8.91 µM (inconclusive) in [13]. Moreover, the EC50 in [5] is 2.21 µM (active); in test [7], 17.5 µM (active).
